The values that follow come from article PMC7558535, “In Vitro Metabolism of DWP16001, a Novel Sodium-Glucose Cotransporter 2 Inhibitor, in Human and Animal Hepatocytes” (Pharmaceutics, 2020).

The nature of series [1]: Metabolic stability in dog hepatocytes. In kind it is in vitro ADME. The conditions noted are these: pooled cryopreserved hepatocytes, dog hepatocytes. How it is done:
(§1) To evaluate the metabolic stability of DWP16001 in human, dog, monkey, mouse, and rat hepatocytes, pooled cryopreserved hepatocytes were carefully thawed in recovery medium and resuspended in incubation medium (Krebs–Henseleit buffer for mouse, rat, and human; William’s E media for dog and monkey) to 0.5 × 10^6 cells/mL for mouse, 0.67 × 10^6 cells/mL for rat, and 1.0 × 10^6 cells/mL for dog, monkey, and human in accordance with the manufacturer’s protocols. Then, 60-μL aliquots of these hepatocyte suspensions and an equal volume of 2 μM DWP16001 in incubation medium were mixed in 96-well plates and incubated in triplicate for 0, 30, 60, 90, 120, 180, or 240 min in a CO2 incubator at 37 °C. Reactions were stopped by addition of 120 µL of ice-cold acetonitrile to each well and the cell suspension was sonicated for 5 min at 4 °C, followed by centrifugation at 15,000× g for 10 min at 4 °C after 5 min of sonication. 80-µL aliquots of the supernatants were then vortex-mixed with 20 μL of ice-cold ketoconazole (an internal standard) in acetonitrile and analyzed by LC–tandem mass spectrometry (LC-MS/MS). The peak area ratios of DWP16001 versus internal standard at each sampling point were used for the subsequent calculation. Elimination parameters, including half-life (t1/2), intrinsic clearance (Clint), and hepatic clearance (Clhep) of DWP16001 in mouse, rat, dog, monkey, and human were calculated by the following equations [19]. (1) t1/2min=ln2/−k elimination slope (2) ClintmL/min/kg=ln2/t1/2×mL incubation/hepatocytes 10^6 cells×B×10^6 cells/g liver×A g liver/kg BW (3) ClhepmL/min/kg=Qh×Clint/Qh+Clint (4) Hepatic extraction ratio = Clhep/Qh
(§2) Here, A has values of 87.5, 40, 32, 32, and 25.7; B has values of 135, 117, 215, 120, and 139; Qh (representing hepatic blood flow) has values of 90, 55.2, 30.9, 43.4, and 20.7 mL/min/kg, for mouse, rat, dog, monkey, and human, respectively. Hepatic extraction ratio values of ≤ 0.25, 0.25–0.75, and ≥ 0.75 were regarded as low, moderate, and high, respectively.

The subject of series [2] is dog hepatocytes. In words: Metabolic stability in dog hepatocytes. The format is in vitro ADME. How it is done:
as §1, §2

Series [3] in a line: Metabolic stability in mouse hepatocytes. Particulars: pooled cryopreserved hepatocytes, mouse hepatocytes. The format is in vitro ADME. The protocol: as §1, §2
Series [4] concerns mouse hepatocytes. In words: Metabolic stability in mouse hepatocytes. The format is in vitro ADME. The protocol:
as §1, §2

The target in series [5] is T1, CYP2C19 (Homo sapiens, UniProt P33261).
T1 construct: purchased Corning Life Sciences
T1 sequence (P33261 whole entry): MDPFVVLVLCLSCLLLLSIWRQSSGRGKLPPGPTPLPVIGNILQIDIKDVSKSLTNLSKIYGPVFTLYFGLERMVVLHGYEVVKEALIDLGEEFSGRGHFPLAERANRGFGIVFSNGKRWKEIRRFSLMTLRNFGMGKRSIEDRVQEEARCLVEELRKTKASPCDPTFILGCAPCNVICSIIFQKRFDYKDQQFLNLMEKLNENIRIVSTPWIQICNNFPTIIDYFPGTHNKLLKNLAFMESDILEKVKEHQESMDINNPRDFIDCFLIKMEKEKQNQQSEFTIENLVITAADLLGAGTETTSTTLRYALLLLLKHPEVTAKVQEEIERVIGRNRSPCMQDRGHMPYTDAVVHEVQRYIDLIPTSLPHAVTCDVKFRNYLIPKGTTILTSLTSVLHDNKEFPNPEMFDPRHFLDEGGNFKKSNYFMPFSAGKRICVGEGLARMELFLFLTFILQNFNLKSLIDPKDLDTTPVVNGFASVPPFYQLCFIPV
Put plainly: CYP screening, recombinant CYP2C19. In kind it is in vitro ADME. The protocol: DWP16001, M1, or M2 was incubated with 11 human cDNA-expressed CYP enzymes (1A1, 1A2, 2A6, 2B6, 2C8, 2C9, 2C19, 2D6, 2E1, 3A4, and 3A5) to identify the CYP enzymes involved in the metabolism of DWP16001. Reaction mixtures of 95 µL containing DWP16001 (final concentration: 5 µM), M1 or M2 (final concentration: 10 µM), and CYPs (final amount: 10 pmol) were prepared in 0.1 M potassium phosphate buffer (pH 7.4). The reaction was started by adding 5 µL of NADPH-generating system; the mixtures were incubated for 30 min at 37 °C in triplicate. Reactions were stopped by the addition of 400 µL of ice-cold ketoconazole (internal standard, 200 ng/mL) in ice-cold acetonitrile. Samples were centrifuged at 15,000× g for 8 min at 4 °C. Seventy-five microliter aliquots of the supernatants were diluted with 75 µL of deionized water and analyzed using an LC–MS/MS system.

Series [6] deals with T2, CYP3A4 (Homo sapiens, UniProt P08684).
T2 construct: purchased Corning Life Sciences
T2 sequence (P08684 whole entry): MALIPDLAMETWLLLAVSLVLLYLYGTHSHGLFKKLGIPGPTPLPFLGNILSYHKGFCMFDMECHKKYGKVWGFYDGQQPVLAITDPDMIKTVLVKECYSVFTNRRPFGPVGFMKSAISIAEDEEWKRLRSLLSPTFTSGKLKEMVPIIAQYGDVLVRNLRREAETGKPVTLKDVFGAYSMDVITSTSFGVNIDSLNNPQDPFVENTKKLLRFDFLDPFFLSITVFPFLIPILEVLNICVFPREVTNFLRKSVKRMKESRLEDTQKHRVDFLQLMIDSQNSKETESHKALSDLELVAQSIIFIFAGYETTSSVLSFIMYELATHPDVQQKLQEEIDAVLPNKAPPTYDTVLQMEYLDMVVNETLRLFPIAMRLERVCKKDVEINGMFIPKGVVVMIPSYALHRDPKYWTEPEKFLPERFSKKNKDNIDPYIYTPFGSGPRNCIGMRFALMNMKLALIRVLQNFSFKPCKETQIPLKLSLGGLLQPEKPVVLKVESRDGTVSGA
In words: Immunoinhibition of DWP16001 metabolism by anti-CYP3A4 antibody in human liver microsomes. Particulars: 5 μM DWP16001, pooled human liver microsomes. The format is in vitro ADME. The protocol:
DWP16001 (5 μM) in human liver microsomes was incubated with varying concentrations of antibody specific for human CYP3A4 (anti-CYP3A4 antibody). Prior to incubation, human liver microsomes were pretreated with anti-CYP3A4 antibody for 15 min on ice. Reactions were initiated by addition of an aliquot of NADPH-generating system; mixtures were incubated for 60 min at 37 °C. Reactions were terminated by addition of 100 µL of ice-cold ketoconazole (200 ng/mL) in acetonitrile; following centrifugation at 15,000× g for 10 min at 4 °C. Aliquots of supernatant (150 µL) was evaporated using a vacuum concentrator and re-dissolved in 100 µL of 20% methanol; 5 µL aliquots were injected into an LC-MS/MS system.
On the technique in general: Liver microsomes are a subcellular fraction often used to study metabolism.

Series [7] deals with SGLT2. On the set-up: method as in PMID 32183468. Particulars: read-out: IC50 (SGLT2 inhibition); cited from earlier work.

Take `OC[C@H]1O[C@@H](c2cc(Cc3ccc(C4CC4)cc3)c(Cl)c3c2CCO3)[C@H](O)[C@@H](O)[C@@H]1O` [DWP16001, (2S,3R,4R,5S,6R)-2-(7-chloro-6-(4-cyclopropylbenzyl)-2,3-dihydrobenzofuran-4-yl)-6-(hydroxymethyl)tetrahydro-2H-pyran-3,4,5-triol]: the values for the CLint scaled at 1 μM in series [1] and in series [3] were 2.56 L/h/kg and 3.68 L/h/kg, respectively. In addition, the half-life at 1 μM in series [1] (37 °C, 0-240 min) was determined as 3.73 h; in series [3] (37 °C, 0-240 min), 8.88 h. For the same compound, the “Hepatic extraction ratio class” value in series [2] (dog) and in series [4] (mouse) was “moderate (0.25–0.75)” throughout. The Clhep in series [2] (dog hepatocytes, well-stirred model) was 1.07 L/h/kg; in series [4] (mouse hepatocytes, well-stirred model), 2.19 L/h/kg. In series [4] (mouse hepatocytes), the Hepatic extraction ratio is listed as 0.41. Further, the “Substrate of CYP2C19” value in series [5] is “substrate”. In addition, the “Formation of M1 and M2 from DWP16001 with increasing anti-CYP3A4 antibody” value in series [6] is on record as “decreased”. In series [7], the IC50 was 0.8 ± 0.3 nM.

As usually defined, the CLint scaled is a measure of how fast metabolising enzymes remove a compound, apart from limits set by blood flow. A higher CLint scaled goes with rapid turnover. As usually defined, the half-life is how long it takes for the measured level to halve. Read a low half-life as rapid decline. Broadly, the IC50 is the concentration needed to halve the response being measured.
